EP4112728A1, “METHOD FOR I[…]-BINDING PEPTIDES” (ETH Zürich, priority 2021, dated 2023)

Columns and labels:
cspA promoter = test: Stress response assay, cold shock response (PcspA-gfp) indicating translation inhibition; type: cell-based, E. coli; details: GFP under cspA promoter, relative to inactive control HNP-1; one sided t-test, adj. p<0.05
Text: Lastly, the inventors characterized the 50 most growth inhibitory (38 SIMILARS, 12 PARENTS) peptides using different assays (FIG.18). The inventors first used two biosensor constructs, containing the cspA and recA promoters, which upon activation are indicative of translation impairment and DNA damage, respectively. […] Next, the inventors measured membrane damage by quantifying propidium iodide (PI) uptake.
The inventors selected peptide-expressing strains of rank 1-50, previously generated for the monoseptic growth assay. […] Moreover, two plasmids (cloning vector: puA66) containing either the promoter of the gene for recombinase A (PrecA) or for the gene for cold shock protein A (PcspA) were purified from the E. coli Alon collection. Both plasmids contained a transcriptional fusion of their promoter with a downstream gene for green fluorescent protein (gfp), an additional kanamycin resistance cassette and a pSC101 origin of replication. […] The inventors recorded OD and GFP expression (λEx 488 nm/λEm 530nm) after 1.5 h and 4.5 h using a Tecan Infinite 200 PRO (37 °C, 1.5 mm orbital shaking). For each strain, the inventors calculated the specific fluorescence change between the two time points (GFP/OD (4.5 h) - GFP/OD (1.5 h)). Statistical significance was calculated by one sided t-tests, adjusted for multiple testing by Benjamini-Hochberg, using the signal of HNP-13425 APD

[1] = test system: other clinically relevant Gram negative and positive bacteria; test: Minimal inhibitory concentration (MIC) against other strains; type: cell-based; details: range over the strains tested (FIG.21)

Question: For VDKGGYLPRPTPPRPVYR [ID 7122], which translational impairment (cspA promoter) is on record?
Answer: strongest indication for translational impairment

Question: For “GWFKKAWRKVKHAGRRVLDTAKGVGRHYLNNWLNRYR [ID 4545]”, which MIC [1] is on record?
Answer: 0.4 to 5.6 µM
